We go through 3 compounds from patent publication US20050118263A1, “Composition” (priority 2002, published 2005).

The subject of data set [1] is patients with type 2 diabetes. Kind of data set: Withdrawals from treatment in patients with type 2 diabetes. Format: in vivo, human. To be noted: carbenoxolone alone: of 8 patients, including one hospital admission with hypokalaemia.
A further data set deals with healthy, unmedicated men. Kind of data set: Randomised, double-blind, crossover trial in healthy men: cognitive tests at end of each phase (Example 2). To be noted: 4 weeks per phase, carbenoxolone 100 mg 8 hourly + amiloride 10 mg daily by mouth vs placebo + amiloride, p<0.01. Format: in vivo, human. As to the method:
10 healthy, unmedicated men (65.5 plus/minus SD 5.5y) participated in a randomised, double-blind, crossover trial comparing carbenoxolone (100 mg 8 hourly for 4 weeks by mouth) plus amiloride (10 mg daily by mouth) with placebo (8 hourly for 4 weeks by mouth) plus amiloride (10 mg daily by mouth). Each study phase lasts 4 weeks. The two phases are separated by an 8 week washout period. The order of carbenoxolone or placebo is randomised and the subjects and the experimenters are blind to the treatment given. Participants are asked to look out for potential adverse effects of carbenoxolone, including weight gain and pedal edema, and blood pressure and plasma electrolytes are monitored weekly. Compliance is assessed by pill counting and detecting carbenoxolone in plasma by high performance liquid chromatography. At the end of each phase, tests of verbal fluency, verbal memory, visuospatial memory, attention and processing speed, and intelligence are performed. Data are mean+/−SEM for the % change in cognitive score, calculated for each individual as (score with carbenoxolone+amiloride)−(score with placebo+amiloride)/(score with placebo+amiloride)×100. P values refer to comparison of absolute data in the two groups. Statistical analysis is conducted using Mann-Witney U tests and Friedman's non-parametric ANOVAs.

The subject of data set [2] is patients with type 2 diabetes. As to the kind of experiment: Randomised double-blind placebo controlled crossover trial in type 2 diabetes patients: cognitive tests at end of each phase (Example 3). Format: in vivo, human. To be noted: 6 weeks per phase. Here is the method: 12 patients with type 2 diabetes by World Health Organisation criteria (age range 52-70 y, mean 60.1 y), including 3 women and 9 men, participated in a randomised double-blind placebo controlled crossover trial comparing carbenoxolone (100 mg 8 hourly for 6 weeks by mouth) plus amiloride (10 mg daily by mouth) with placebo (8 hourly for 6 weeks by mouth) plus amiloride (10 mg daily by mouth). The two phases are separated by a washout period of 8 weeks. The order of carbenoxolone or placebo is randomised and the subjects and the experimenters are blind to the treatment given. At the end of each phase, tests of verbal fluency, verbal memory, visuospatial memory, attention and processing speed and intelligence are performed.

The conditions of data set [3]: known from Yau et al. (1999) Neurosci Lett 277: 45-48; cited from earlier work.

`CC1(C)[C@@H](OC(=O)CCC(=O)O)CC[C@]2(C)[C@H]3C(=O)C=C4[C@@H]5C[C@@](C)(C(=O)O)CC[C@]5(C)CC[C@@]4(C)[C@]3(C)CC[C@@H]12` [carbenoxolone]: the “withdrawals due to sodium retention” value in data set [1] is listed as 3.
Regarding `NC(N)=NC(=O)c1nc(Cl)c(N)nc1N` [Placebo with Amiloride, 3,5-diamino-6-chloro-N-(diaminomethylene) pyrazinecarboxamide], the “verbal fluency (Controlled Word Association test), mean/SD” value with healthy, unmedicated men is reported as 41/12. Also, the “Processing speed: DSST, Mean (SD)” value in data set [2] (Digit Symbol Substitution test, p 0.78) is recorded as 50.3 (6.7). In addition, the “Reasoning: RSPM, Mean (SD)” value in data set [2] (Ravens Standard Progressive Matrices, p 0.17) is reported as 44.0 (6.6). In addition, in data set [2] (Rey Auditory Verbal Learning Test, p <0.01), the “Verbal memory: Rey AVLT, Mean (SD)” value is 56.1 (8.7). Besides, in data set [2] (Wechsler Memory Scale-revised, p 0.78), the “Verbal memory: WM Logical Memory, Mean (SD)” value was 49.7 (13.8). The “Visual memory: WM Visual reproduction, Mean (SD)” value in data set [2] (Wechsler Memory Scale-revised, p 0.94) was 59.9 (13.3). The “Executive function: Verbal Fluency, Mean (SD)” value in data set [2] (p 0.48 between phases) is reported as 42.2 (8.4).
`CC(=O)S[C@@H]1CC2=CC(=O)CC[C@]2(C)[C@H]2CC[C@@]3(C)[C@@H](CC[C@@]34CCC(=O)O4)[C@H]12` [Spironolactone, 17-hydroxy-7-alpha-mercapto-3-oxo-17-alpha-pregn-4-ene-21-carboxylic acid gamma-lactone acetate]: the “unwanted effects on cognitive function” value in data set [3] is given as “reduce cognitive function”.
